# Test results taken from PubChem BioAssay AID1259407 (Chemical Carcinogenesis Research Information System (CCRIS), 2018).
# The source made the active and inactive calls. How the calls were made is not given here.
# Tested on: CCRIS mutagenicity, Ames/micronucleus/aberration tests
# Assay: CCRIS mutagenicity studies
# [1] = Test System: AMES SALMONELLA TYPHIMURIUM, Strain/Indicator: TA98, Metabolic Activation: NONE, Method: STANDARD PLATE
# [2] = Test System: AMES SALMONELLA TYPHIMURIUM, Strain/Indicator: TA100, Metabolic Activation: NONE, Method: STANDARD PLATE
# [3] = Test System: AMES SALMONELLA TYPHIMURIUM, Strain/Indicator: TA1535, Metabolic Activation: NONE, Method: STANDARD PLATE
# [4] = Test System: AMES SALMONELLA TYPHIMURIUM, Strain/Indicator: TA1538, Metabolic Activation: NONE, Method: STANDARD PLATE
smiles,measurement,setting,value
CC(O)CCC(=O)c1ccoc1 (stereo not given),mutagenic call,"Test System: AMES SALMONELLA TYPHIMURIUM, Strain/Indicator: TA98, Metabolic Activation: HAMSTER, LIVER, S-9, AROCLOR 1254, Method: STANDARD PLATE",inactive; negative
same,mutagenic call,[1],inactive; negative
same,mutagenic call,"Test System: AMES SALMONELLA TYPHIMURIUM, Strain/Indicator: TA98, Metabolic Activation: RAT, LIVER, S-9, AROCLOR 1254, Method: STANDARD PLATE",inactive; negative
same,mutagenic call,"Test System: AMES SALMONELLA TYPHIMURIUM, Strain/Indicator: TA100, Metabolic Activation: HAMSTER, LIVER, S-9, AROCLOR 1254, Method: STANDARD PLATE",inactive; negative
same,mutagenic call,[2],inactive; negative
same,mutagenic call,"Test System: AMES SALMONELLA TYPHIMURIUM, Strain/Indicator: TA100, Metabolic Activation: RAT, LIVER, S-9, AROCLOR 1254, Method: STANDARD PLATE",inactive; negative
same,mutagenic call,"Test System: AMES SALMONELLA TYPHIMURIUM, Strain/Indicator: TA1535, Metabolic Activation: HAMSTER, LIVER, S-9, AROCLOR 1254, Method: STANDARD PLATE",inactive; negative
same,mutagenic call,[3],inactive; negative
same,mutagenic call,"Test System: AMES SALMONELLA TYPHIMURIUM, Strain/Indicator: TA1535, Metabolic Activation: RAT, LIVER, S-9, AROCLOR 1254, Method: STANDARD PLATE",inactive; negative
same,mutagenic call,"Test System: AMES SALMONELLA TYPHIMURIUM, Strain/Indicator: TA1537, Metabolic Activation: HAMSTER, LIVER, S-9, AROCLOR 1254, Method: STANDARD PLATE",inactive; negative
same,mutagenic call,"Test System: AMES SALMONELLA TYPHIMURIUM, Strain/Indicator: TA1537, Metabolic Activation: NONE, Method: STANDARD PLATE",inactive; negative
same,mutagenic call,"Test System: AMES SALMONELLA TYPHIMURIUM, Strain/Indicator: TA1537, Metabolic Activation: RAT, LIVER, S-9, AROCLOR 1254, Method: STANDARD PLATE",inactive; negative
same,mutagenic call,"Test System: AMES SALMONELLA TYPHIMURIUM, Strain/Indicator: TA1538, Metabolic Activation: HAMSTER, LIVER, S-9, AROCLOR 1254, Method: STANDARD PLATE",inactive; negative
same,mutagenic call,[4],inactive; negative
same,mutagenic call,"Test System: AMES SALMONELLA TYPHIMURIUM, Strain/Indicator: TA1538, Metabolic Activation: RAT, LIVER, S-9, AROCLOR 1254, Method: STANDARD PLATE",inactive; negative
O=[N+]([O-])c1cc2[nH]c3cc([N+](=O)[O-])c4ccccc4c3c2c2ccccc12,mutagenic call,[1],active; positive
same,mutagenic call,"Test System: AMES SALMONELLA TYPHIMURIUM, Strain/Indicator: TA98, Metabolic Activation: RAT, LIVER, S-9, 3-METHYLCHOLANTHRENE, Method: STANDARD PLATE",active; positive
same,mutagenic call,[2],active; positive
same,mutagenic call,"Test System: AMES SALMONELLA TYPHIMURIUM, Strain/Indicator: TA100, Metabolic Activation: RAT, LIVER, S-9, 3-METHYLCHOLANTHRENE, Method: STANDARD PLATE",active; positive
Nc1nc(OCc2ccccc2)c2[nH]cnc2n1,mutagenic call,"Test System: Mouse lymphoma, Strain/Indicator: L5178Y (tk+/tk-), Metabolic Activation: None, Method: Suspension/plate",active; positive
same,mutagenic call,"Test System: Mouse lymphoma, Strain/Indicator: L5178Y (tk+/tk-), Metabolic Activation: Rat, Liver, S-9, Aroclor 1254, Method: Suspension/plate",inconclusive
CC(=O)Oc1ccc(CO)cc1,mutagenic call,[2],inactive; negative
O=[N+]([O-])c1cccc2cnsc12,mutagenic call,[2],active; positive
Cc1c2ccccc2c(C)c2c3c(ccc12)[C@H](O)[C@@H](O)C=C3,mutagenic call,"Test System: CHINESE HAMSTER V-79, Strain/Indicator: V-79/6-THIOGUANINE, Metabolic Activation: CELL-MEDIATED, Method: STANDARD PLATE",active; positive
same,mutagenic call,"Test System: CHINESE HAMSTER V-79, Strain/Indicator: V-79/OUABAIN, Metabolic Activation: CELL-MEDIATED, Method: STANDARD PLATE",active; positive
CCCCCC(=O)O,mutagenic call,"Test System: AMES SALMONELLA TYPHIMURIUM, Strain/Indicator: TA97, Metabolic Activation: NONE, Method: PREINCUBATION",inactive; negative
same,mutagenic call,"Test System: AMES SALMONELLA TYPHIMURIUM, Strain/Indicator: TA97, Metabolic Activation: RAT, LIVER, S-9, AROCLOR 1254, Method: PREINCUBATION",inactive; negative
same,mutagenic call,"Test System: AMES SALMONELLA TYPHIMURIUM, Strain/Indicator: TA102, Metabolic Activation: NONE, Method: PREINCUBATION",inactive; negative
same,mutagenic call,"Test System: AMES SALMONELLA TYPHIMURIUM, Strain/Indicator: TA102, Metabolic Activation: RAT, LIVER, S-9, AROCLOR 1254, Method: PREINCUBATION",inactive; negative
O=c1c2c(O)cccc2oc2c3c(cc(O)c12)O[C@H]1OC=C[C@@H]31,mutagenic call,"Test System: AMES SALMONELLA TYPHIMURIUM, Strain/Indicator: TA98, Metabolic Activation: RAT, LIVER, S-9, PHENOBARBITAL, Method: STANDARD PLATE",inactive; negative
same,mutagenic call,"Test System: AMES SALMONELLA TYPHIMURIUM, Strain/Indicator: TA100, Metabolic Activation: RAT, LIVER, S-9, PHENOBARBITAL, Method: STANDARD PLATE",active; positive
CC(C)N1C(=O)c2ccccc2NS1(=O)=O,mutagenic call,"Test System: AMES SALMONELLA TYPHIMURIUM, Strain/Indicator: TA97, Metabolic Activation: NONE, Method: STANDARD PLATE",inactive; negative
same,mutagenic call,"Test System: AMES SALMONELLA TYPHIMURIUM, Strain/Indicator: TA97, Metabolic Activation: RAT, LIVER, S-9, DELOR 103, Method: STANDARD PLATE",inactive; negative
same,mutagenic call,[1],inactive; negative
same,mutagenic call,"Test System: AMES SALMONELLA TYPHIMURIUM, Strain/Indicator: TA98, Metabolic Activation: RAT, LIVER, S-9, DELOR 103, Method: STANDARD PLATE",inactive; negative
same,mutagenic call,[2],inactive; negative
same,mutagenic call,"Test System: AMES SALMONELLA TYPHIMURIUM, Strain/Indicator: TA100, Metabolic Activation: RAT, LIVER, S-9, DELOR 103, Method: STANDARD PLATE",inactive; negative
same,mutagenic call,[3],inactive; negative
same,mutagenic call,"Test System: AMES SALMONELLA TYPHIMURIUM, Strain/Indicator: TA1535, Metabolic Activation: RAT, LIVER, S-9, DELOR 103, Method: STANDARD PLATE",inactive; negative
same,mutagenic call,[4],inactive; negative
same,mutagenic call,"Test System: AMES SALMONELLA TYPHIMURIUM, Strain/Indicator: TA1538, Metabolic Activation: RAT, LIVER, S-9, DELOR 103, Method: STANDARD PLATE",inactive; negative
CC1=CC(C=O)C(C=O)=C[C@@H]2CC(C)(C)C[C@H]12 (stereo not given in full),mutagenic call,[1],inactive; negative
same,mutagenic call,[2],inactive; negative
same,mutagenic call,"Test System: AMES SALMONELLA TYPHIMURIUM, Strain/Indicator: TA2637, Metabolic Activation: NONE, Method: STANDARD PLATE",inactive; negative
same,mutagenic call,"Test System: CHINESE HAMSTER V-79, Strain/Indicator: V-79/6-THIOGUANINE (HGPRT), Metabolic Activation: NONE",inactive; negative
